# According to patent US4061741A, “Physiological substances for intensifying the pharmacological effect of drugs” (Firma Servomed Arzei GmbH & Co. Pharma KG, priority 1974, dated 1977):
# Entries after “also recorded” stand apart in the source; their conditions may differ. Where a name gives a salt, the structure may show the parent alone.
# What was measured:
# CFI mice = assay: analgesic efficacy, writhing test, 60 minutes after oral application (Examples 5 to 8, Tables V to VIII); format: in vivo, mouse (CFI); details: for ED50: Mus musculus, 1 h, 60 mins.
# Procedure: The analgesic efficacy of sodium salicylate, sodium salicylate + choline orotate in the molar ratio of 1:1 and sodium salicylate + choline orotate in the molar ratio of 1:2 was compared in the writhing test on mice and the ED50 determined after 1 hour.
# As in Example 5, the ED50 of metamizol and metamizol + choline orotate in the molar ratio of 1:2 was determined after one hour by the writhing test.
# The analgesic effects of codeine phosphate and codeine phosphate + choline orotate (molar ratio 1:1) are compared in the writhing test on mice.
# NMRI mice = assay: analgesic efficacy, writhing syndrome, oral (Example 1, Table I); format: in vivo, mouse (NMRI, female)
# Procedure: Dextropropoxyphene-HCl, dextropropolyphenorotate and dextropropoxyphene orotate + orotic acid (in the molar ratio 1:1) were tested on mice to determine their analgesic efficacy after oral administration following the "writhing" syndrome. The ED50 was determined after 15 minutes, 30 minutes, 60 minutes and 180 minutes.
# ED50 in […] of mouse (calculated with respect to the
# dextropropoxyphene-HCl);
# oral application, writhing syndrome, 800 NMRI mice, […]
# guinea pigs [1] = assay: antitussive action, Turner cough test, citric acid aerosol, intravenous (Example 3, Table III); format: in vivo, guinea pig
# Procedure: As with Example 2, the two substances laevopropoxyphene-HCl and laevopropoxyphene orotate were tested and compared with respect to their antitussive action. This time, however, intravenous applications were adopted.
# % cough inhibition; the figures in brackets represent mg
# propoxyphene-HCl in the 1-propoxyphene orotate.
# 320 guinea pigs (350 g); intravenous application. 7.5%
# guinea pigs [2] = assay: antitussive efficacy, Turner cough test, citric acid aerosol, oral (Example 2, Table II); format: in vivo, guinea pig; details: for % cough inhibition: 30 minutes after oral application; for ED50: calculated according to the Gaussian Integral from the values of Table II, 30 minutes; for ED50 / antitussive efficacy (in words): oral; for antitussive efficacy (in words): in the dosages tested, guinea pigs
# Procedure: The antitussive efficacy of laevopropoxyphene-HCl and laevopropoxyphene orotate was compared on guinea pigs, using the Turner cough test.
# % cough inhibition 30 minutes after oral application.
# 70 guinea pigs, 250 g; 7.5% citric acid aerosol for 10
# minutes in the respired air.
# According to the Gaussian Integral, from the values shown in the Table, the ED50 can be calculated for: L-propoxyphene-HCl as being greater than 200 mg/kg of animal, 1-propoxyphene orotate 79 ± 8 mg/kg of animal.
# guinea pigs [3] = assay: antitussive efficacy, Turner cough test, citric acid aerosol, oral (Example 4, Table IV); format: in vivo; details: guinea pig, calculated with respect to 1-propoxyphene-HCl
# Procedure: The antitussive efficacy of laevopropoxyphene-HCl, laevopropoxyphene orotate, laevopropoxyphene orotate + choline orotate (in the molar ratio 1:1) and of laevopropoxyphene-HCl + choline orotate (in the molar ratio of 1:2) was tested and compared after oral application on guinea pigs using the Turner cough test.
# ED50 in mg/kg of guinea pig. Values calculated with respect
# 280 guinea pigs (350 g); oral application.
# 7.5% citric acid aerosol.
# blood proteins = assay: drug not bonded to serum protein, ultrafiltration of human serum with and without orotic acid; format: in vitro ADME; details: in the presence of orotic acid
# Procedure: 1 ml of this serum is then ultrafiltered at the same temperature, accompanied by agitation. (Filter permeability up to a molecular weight of approx. 10,000). The radioactivity contained in this ml is measured. The measured value, found […], indicates the percentage of drug which is not bonded to protein. The same test is repeated but in the presence of non-radioactively marked orotic acid in a molar ratio to the marked drug of for example 1:1 or 1:2. The percentage of free drug is calculated similarly as described above. If the second measured value is higher than the first, then this is a measure of improved availability of the drug. This increased availability is confirmed in experiments with animals.
smiles,measurement,setting,value
COc1ccc2c3c1O[C@H]1[C@@H](O)C=C[C@H]4[C@@H](C2)N(C)CC[C@@]341 [Codeine phosphate],ED50,"CFI mice; oral, writhing syndrome, CFI mice, female, 20 to 22 g, Table VII",82 mg/kg
CCC(=O)O[C@](Cc1ccccc1)(c1ccccc1)[C@H](C)CN(C)C [Dextropropoxyphene orotate],analgesic efficacy (in words),NMRI mice,substantially more intensely effective as an analgesic than dextropropoxyphene-HCl by itself
CCC(=O)O[C@@](Cc1ccccc1)(c1ccccc1)[C@@H](C)CN(C)C [Laevopropoxyphene orotate],% cough inhibition,"guinea pigs [1]; 1 (0.758) mg/kg, 5 min., bracket = mg propoxyphene-HCl",17.5%
same,% cough inhibition,"guinea pigs [1]; 1 (0.758) mg/kg, 10 min.",24%
same,% cough inhibition,"guinea pigs [1]; 1 (0.758) mg/kg, 15 min.",30%
same,% cough inhibition,"guinea pigs [1]; 1 (0.758) mg/kg, 20 min.",23%
same,% cough inhibition,"guinea pigs [1]; 3 (2.27) mg/kg, 5 min.",31.0%
same,% cough inhibition,"guinea pigs [1]; 3 (2.27) mg/kg, 10 min.",30%
same,% cough inhibition,"guinea pigs [1]; 3 (2.27) mg/kg, 15 min.",36%
same,% cough inhibition,"guinea pigs [1]; 3 (2.27) mg/kg, 20 min.",47%
same,% cough inhibition,"guinea pigs [1]; 5 (3.79) mg/kg, 5 min.",40.5%
same,% cough inhibition,"guinea pigs [1]; 5 (3.79) mg/kg, 10 min.",48%
same,% cough inhibition,"guinea pigs [1]; 5 (3.79) mg/kg, 15 min.",53%
same,% cough inhibition,"guinea pigs [1]; 5 (3.79) mg/kg, 20 min.",59%
same,% cough inhibition,"guinea pigs [1]; 7.5 (5.69) mg/kg, 5 min.",52.0%
same,% cough inhibition,"guinea pigs [1]; 7.5 (5.69) mg/kg, 10 min.",59%
same,% cough inhibition,"guinea pigs [1]; 7.5 (5.69) mg/kg, 15 min.",63%
same,% cough inhibition,"guinea pigs [1]; 7.5 (5.69) mg/kg, 20 min.",62%
same,antitussive efficacy (in words),guinea pigs [1]; guinea pigs,superior efficacy
same,% cough inhibition,guinea pigs [2]; 25 mg/kg,6%
same,% cough inhibition,guinea pigs [2]; 50 mg/kg,31%
same,% cough inhibition,guinea pigs [2]; 75 mg/kg,47%
same,% cough inhibition,guinea pigs [2]; 100 mg/kg,56%
same,ED50,guinea pigs [2]; listed as 1-propoxyphene orotate,79 ± 8 mg/kg of animal
same,antitussive efficacy (in words),guinea pigs [2],outstanding antitussive efficacy
same,ED50,"guinea pigs [3]; 1 hr., listed as Laevopropoxyphene crotate, 60 min",103 mg/kg
same,ED50,"guinea pigs [3]; 3 hr., listed as Laevopropoxyphene crotate, 180 min",68 mg/kg
CCC(=O)O[C@@](Cc1ccccc1)(c1ccccc1)[C@@H](C)CN(C)C [Laevopropoxyphene-HCl],% cough inhibition,"guinea pigs [1]; 2 mg/kg, 5 min.",11%
same,% cough inhibition,"guinea pigs [1]; 2 mg/kg, 10 min.",0%
same,% cough inhibition,"guinea pigs [1]; 2 mg/kg, 15 min.",0%
same,% cough inhibition,"guinea pigs [1]; 5 mg/kg, 5 min.",24%
same,% cough inhibition,"guinea pigs [1]; 5 mg/kg, 10 min.",0%
same,% cough inhibition,"guinea pigs [1]; 5 mg/kg, 15 min.",0%
same,toxicity remark in the cough inhibition table,guinea pigs [1]; 7.5 mg/kg,subtoxic
same,% cough inhibition,guinea pigs [2]; 25 mg/kg,0%
same,% cough inhibition,guinea pigs [2]; 50 mg/kg,8%
same,% cough inhibition,guinea pigs [2]; 75 mg/kg,0%
same,% cough inhibition,guinea pigs [2]; 100 mg/kg,11%
same,% cough inhibition,guinea pigs [2]; 150 mg/kg,0%
same,% cough inhibition,guinea pigs [2]; 200 mg/kg,9%
same,ED50,guinea pigs [2]; listed as L-propoxyphene-HCl,greater than 200 mg/kg of animal
same,antitussive efficacy (in words),guinea pigs [2],no antitussive efficacy
same,ED50,"guinea pigs [3]; 1 hr., listed as Laevorpopoxyphene-HCl, 60 min",250 mg/kg
same,ED50,"guinea pigs [3]; 3 hr., listed as Laevorpopoxyphene-HCl, 180 min",195 mg/kg
Cc1c(N(C)CS(=O)(=O)O)c(=O)n(-c2ccccc2)n1C [Metamizol],ED50,"CFI mice; oral, writhing test, CFI mice (18 to 20 g), Table VI",380 mg/kg
same,analgesic efficacy on addition of an orotic acid salt (in words),"CFI mice; metamizol, writhing test, mice, oral",reinforcement of the analgesic efficacy
CCCCC1C(=O)N(c2ccccc2)N(c2ccccc2)C1=O [Phenyl butazone],ED50,"CFI mice; oral, writhing syndrome, CFI mice, female, 20 to 22 g, Table VIII",130 ± 45 mg/kg
same,analgesia in animal experiments (in words),CFI mice; in the presence of orotic acid,no reinforced analgesia; also recorded: no reinforced pharmacological action
same,amount of drug in the ultrafiltrate (in words),blood proteins,not found in increased quantity in the ultrafiltrate; also recorded: no more drug is found
O=C([O-])c1ccccc1O.[Na+] [Sodium salicylate],ED50,"CFI mice; oral, writhing test, CFI mice (18 - 20 g), Table V",580 mg/kg
